Measurements: ChEMBL document CHEMBL5136992, “Fascinating Transformation of SAM-Competitive Protein Methyltransferase Inhibitors from Nucleoside Analogues to Non-Nucleoside Analogues” (J Med Chem, 2022)
In brackets after ≈: the same amount, converted by molar mass.

How the values were obtained:
[1] = biological target: Protein arginine N-methyltransferase 5 (Homo sapiens, UniProt O14744); experiment: Inhibition of PRMT5 (unknown origin)
[2] = biological target: T1, Histone-lysine N-methyltransferase SETD7 (Homo sapiens, UniProt Q8WTS6); experiment: Inhibition of SET7 (unknown origin)
T1 sequence (Q8WTS6 whole entry): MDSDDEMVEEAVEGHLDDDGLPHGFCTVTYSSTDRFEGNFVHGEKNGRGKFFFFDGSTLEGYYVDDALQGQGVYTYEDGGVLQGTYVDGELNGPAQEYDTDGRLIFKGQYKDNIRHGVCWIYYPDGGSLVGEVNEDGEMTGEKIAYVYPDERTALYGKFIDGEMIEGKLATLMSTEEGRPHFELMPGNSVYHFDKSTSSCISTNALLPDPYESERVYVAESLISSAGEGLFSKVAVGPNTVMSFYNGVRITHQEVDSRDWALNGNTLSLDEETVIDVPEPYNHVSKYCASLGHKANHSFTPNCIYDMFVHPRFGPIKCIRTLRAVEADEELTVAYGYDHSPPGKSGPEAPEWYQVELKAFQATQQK

[3] = biological target: T2, Histone-lysine N-methyltransferase EZH2 (Homo sapiens, UniProt Q15910); experiment: Inhibition of EZH2 (unknown origin)
Target sequence in this assay (Q15910 whole entry): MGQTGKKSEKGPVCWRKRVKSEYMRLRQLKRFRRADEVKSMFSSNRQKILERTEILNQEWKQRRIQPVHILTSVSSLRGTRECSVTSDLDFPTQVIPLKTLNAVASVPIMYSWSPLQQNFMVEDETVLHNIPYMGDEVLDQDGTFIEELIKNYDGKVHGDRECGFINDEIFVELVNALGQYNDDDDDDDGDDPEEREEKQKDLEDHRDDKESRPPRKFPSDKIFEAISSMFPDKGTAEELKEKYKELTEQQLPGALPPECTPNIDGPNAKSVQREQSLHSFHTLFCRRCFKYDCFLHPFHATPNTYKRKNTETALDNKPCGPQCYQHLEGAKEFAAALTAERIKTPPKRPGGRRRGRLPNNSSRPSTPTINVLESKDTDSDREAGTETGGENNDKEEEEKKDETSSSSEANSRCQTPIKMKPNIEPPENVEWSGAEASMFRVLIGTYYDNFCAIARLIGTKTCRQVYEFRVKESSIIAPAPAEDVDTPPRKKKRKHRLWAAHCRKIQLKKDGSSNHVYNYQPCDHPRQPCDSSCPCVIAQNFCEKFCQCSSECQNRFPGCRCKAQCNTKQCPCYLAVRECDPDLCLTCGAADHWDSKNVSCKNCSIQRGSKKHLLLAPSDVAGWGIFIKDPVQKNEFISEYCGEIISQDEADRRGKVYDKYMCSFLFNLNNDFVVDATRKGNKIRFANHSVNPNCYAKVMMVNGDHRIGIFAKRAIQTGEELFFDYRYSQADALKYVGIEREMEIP

[4] = biological target: T2, Histone-lysine N-methyltransferase EZH2; experiment: Binding affinity to EZH2 (unknown origin) assessed as inhibition constant
Target sequence in this assay (Q15910 whole entry): as above

MV4-11 = experiment: Antiproliferative activity against human MV4-11 cells; assay type: functional, cell-based
[5] = biological target: T2, Histone-lysine N-methyltransferase EZH2; experiment: Inhibition of EZH2 (unknown origin) assessed as residence time
Target sequence in this assay (Q15910 whole entry, looked up): as the sequence (Q15910 whole entry) above

[6] = Aqueous solubility of the compound; assay type: physicochemical; details: buffer
cells = details: Homo sapiens, MCF-10A
Description: Inhibition of methylation of H3K79 in human MCF-10A cells by fluorescence assay

[7] = biological target: T3, Histone-lysine N-methyltransferase, H3 lysine-79 specific (Homo sapiens, UniProt Q8TEK3); experiment: Inhibition of DOT1L (unknown origin)
T3 sequence (Q8TEK3 whole entry): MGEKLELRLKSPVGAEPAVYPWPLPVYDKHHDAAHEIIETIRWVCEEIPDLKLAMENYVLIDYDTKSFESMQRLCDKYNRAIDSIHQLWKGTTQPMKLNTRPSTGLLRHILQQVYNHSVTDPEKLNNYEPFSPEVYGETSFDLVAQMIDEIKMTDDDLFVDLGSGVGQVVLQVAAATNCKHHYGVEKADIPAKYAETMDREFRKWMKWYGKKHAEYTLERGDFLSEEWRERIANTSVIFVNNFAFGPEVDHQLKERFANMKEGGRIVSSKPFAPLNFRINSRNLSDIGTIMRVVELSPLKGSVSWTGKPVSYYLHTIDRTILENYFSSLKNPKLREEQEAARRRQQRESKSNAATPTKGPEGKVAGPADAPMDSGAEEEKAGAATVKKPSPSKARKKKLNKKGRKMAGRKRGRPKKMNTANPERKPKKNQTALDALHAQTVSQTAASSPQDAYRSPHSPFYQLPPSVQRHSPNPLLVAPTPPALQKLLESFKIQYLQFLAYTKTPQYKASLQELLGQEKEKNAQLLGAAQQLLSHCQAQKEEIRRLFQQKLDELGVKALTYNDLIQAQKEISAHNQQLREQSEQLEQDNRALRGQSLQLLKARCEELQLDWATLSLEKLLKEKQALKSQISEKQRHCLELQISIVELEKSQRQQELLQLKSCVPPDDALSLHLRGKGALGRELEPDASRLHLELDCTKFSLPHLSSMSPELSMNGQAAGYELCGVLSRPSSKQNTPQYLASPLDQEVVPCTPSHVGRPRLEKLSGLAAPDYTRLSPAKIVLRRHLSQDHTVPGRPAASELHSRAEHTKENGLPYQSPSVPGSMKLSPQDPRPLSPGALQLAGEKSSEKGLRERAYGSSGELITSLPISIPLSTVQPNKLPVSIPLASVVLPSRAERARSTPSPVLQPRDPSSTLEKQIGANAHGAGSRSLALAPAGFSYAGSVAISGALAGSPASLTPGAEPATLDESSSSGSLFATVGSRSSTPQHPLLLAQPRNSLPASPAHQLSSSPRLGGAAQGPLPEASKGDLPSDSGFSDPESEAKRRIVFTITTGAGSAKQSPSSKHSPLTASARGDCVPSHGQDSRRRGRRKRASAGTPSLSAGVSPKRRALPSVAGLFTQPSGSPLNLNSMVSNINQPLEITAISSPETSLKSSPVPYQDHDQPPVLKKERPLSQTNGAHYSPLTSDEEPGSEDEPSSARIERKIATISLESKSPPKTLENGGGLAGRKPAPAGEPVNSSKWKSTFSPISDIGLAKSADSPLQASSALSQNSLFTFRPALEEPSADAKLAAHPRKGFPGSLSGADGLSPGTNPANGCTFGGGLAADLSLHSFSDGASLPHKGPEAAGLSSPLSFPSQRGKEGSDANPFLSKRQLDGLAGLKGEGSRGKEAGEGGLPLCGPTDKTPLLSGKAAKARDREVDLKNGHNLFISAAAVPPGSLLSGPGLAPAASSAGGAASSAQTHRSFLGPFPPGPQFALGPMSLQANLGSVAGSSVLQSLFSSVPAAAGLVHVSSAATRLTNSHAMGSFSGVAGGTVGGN

[8] = biological target: T4, Histone-lysine N-methyltransferase EZH2 (Homo sapiens, UniProt Q15910, Y641N); experiment: Binding affinity to EZH2 Y641N mutant (unknown origin) assessed as inhibition constant
T4 sequence (Q15910 whole entry Y641N): as the sequence (Q15910 whole entry) above, with Y641N counted along it

[9] = biological target: T5, Histone-lysine N-methyltransferase EHMT2 (Homo sapiens, UniProt Q96KQ7); experiment: Inhibition of G9a (unknown origin)
T5 sequence (Q96KQ7 whole entry): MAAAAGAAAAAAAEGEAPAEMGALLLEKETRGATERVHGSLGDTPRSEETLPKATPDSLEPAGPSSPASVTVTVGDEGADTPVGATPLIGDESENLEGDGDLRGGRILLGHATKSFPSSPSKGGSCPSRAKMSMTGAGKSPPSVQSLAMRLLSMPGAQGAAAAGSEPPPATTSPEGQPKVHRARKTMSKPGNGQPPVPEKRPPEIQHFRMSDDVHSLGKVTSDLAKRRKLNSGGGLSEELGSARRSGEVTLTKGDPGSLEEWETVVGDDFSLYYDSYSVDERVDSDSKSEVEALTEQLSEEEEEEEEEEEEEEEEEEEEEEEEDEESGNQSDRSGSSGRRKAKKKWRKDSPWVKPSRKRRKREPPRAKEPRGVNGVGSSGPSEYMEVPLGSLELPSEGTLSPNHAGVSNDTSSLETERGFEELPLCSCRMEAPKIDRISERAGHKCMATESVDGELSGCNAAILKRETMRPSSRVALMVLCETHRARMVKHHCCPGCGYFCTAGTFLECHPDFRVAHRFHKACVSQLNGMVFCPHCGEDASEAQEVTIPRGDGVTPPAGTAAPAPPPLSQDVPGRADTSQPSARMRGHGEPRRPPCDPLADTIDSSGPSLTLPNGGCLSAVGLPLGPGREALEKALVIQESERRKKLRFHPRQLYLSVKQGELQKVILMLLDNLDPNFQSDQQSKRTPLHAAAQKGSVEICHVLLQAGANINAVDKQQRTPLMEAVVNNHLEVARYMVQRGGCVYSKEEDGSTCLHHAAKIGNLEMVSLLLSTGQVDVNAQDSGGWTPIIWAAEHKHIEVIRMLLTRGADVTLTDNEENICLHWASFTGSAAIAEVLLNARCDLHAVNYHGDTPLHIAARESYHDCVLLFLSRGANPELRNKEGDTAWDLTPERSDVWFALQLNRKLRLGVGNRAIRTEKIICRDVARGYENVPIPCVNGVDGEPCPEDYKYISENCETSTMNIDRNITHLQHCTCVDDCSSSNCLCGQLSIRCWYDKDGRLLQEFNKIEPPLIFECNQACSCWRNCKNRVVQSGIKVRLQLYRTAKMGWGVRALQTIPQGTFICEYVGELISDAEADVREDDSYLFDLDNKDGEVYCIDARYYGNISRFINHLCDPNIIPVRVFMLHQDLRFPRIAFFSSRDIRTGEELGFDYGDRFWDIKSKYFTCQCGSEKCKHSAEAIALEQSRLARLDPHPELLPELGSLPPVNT

[10] = biological target: T6, Histone-arginine methyltransferase CARM1 (Homo sapiens, UniProt Q86X55); experiment: Inhibition of PRMT4 (unknown origin)
T6 sequence (Q86X55 whole entry): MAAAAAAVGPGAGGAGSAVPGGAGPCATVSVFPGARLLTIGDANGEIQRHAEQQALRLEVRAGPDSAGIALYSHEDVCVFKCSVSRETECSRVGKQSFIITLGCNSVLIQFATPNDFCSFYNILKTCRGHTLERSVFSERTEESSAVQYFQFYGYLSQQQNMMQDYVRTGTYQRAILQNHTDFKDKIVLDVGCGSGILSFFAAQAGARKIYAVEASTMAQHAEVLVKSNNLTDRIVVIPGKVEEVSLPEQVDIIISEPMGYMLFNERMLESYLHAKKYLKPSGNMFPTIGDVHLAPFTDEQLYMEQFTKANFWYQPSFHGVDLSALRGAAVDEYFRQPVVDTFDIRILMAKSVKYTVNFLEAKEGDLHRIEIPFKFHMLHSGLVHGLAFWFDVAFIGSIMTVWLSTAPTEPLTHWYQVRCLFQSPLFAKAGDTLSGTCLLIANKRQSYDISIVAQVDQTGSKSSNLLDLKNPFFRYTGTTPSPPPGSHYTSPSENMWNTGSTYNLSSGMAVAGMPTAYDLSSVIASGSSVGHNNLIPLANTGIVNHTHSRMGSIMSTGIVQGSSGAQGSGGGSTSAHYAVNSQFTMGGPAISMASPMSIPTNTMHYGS

[11] = biological target: T3, Histone-lysine N-methyltransferase, H3 lysine-79 specific; experiment: Inhibition of human recombinant DOT1L by methyltransferase-Glo Bioluminescent assay
[12] = biological target: T2, Histone-lysine N-methyltransferase EZH2; experiment: Inhibition of wild type EZH2 (unknown origin)
Target sequence in this assay (Q15910 whole entry): as the sequence (Q15910 whole entry) above

[13] = biological target: T4, Histone-lysine N-methyltransferase EZH2; experiment: Inhibition of EZH2 Y641N mutant (unknown origin)
[14] = biological target: Protein arginine N-methyltransferase 1 (Homo sapiens, UniProt Q99873); experiment: Inhibition of PRMT1 (unknown origin)
Sequence of Protein arginine N-methyltransferase 1 (Q99873 whole entry): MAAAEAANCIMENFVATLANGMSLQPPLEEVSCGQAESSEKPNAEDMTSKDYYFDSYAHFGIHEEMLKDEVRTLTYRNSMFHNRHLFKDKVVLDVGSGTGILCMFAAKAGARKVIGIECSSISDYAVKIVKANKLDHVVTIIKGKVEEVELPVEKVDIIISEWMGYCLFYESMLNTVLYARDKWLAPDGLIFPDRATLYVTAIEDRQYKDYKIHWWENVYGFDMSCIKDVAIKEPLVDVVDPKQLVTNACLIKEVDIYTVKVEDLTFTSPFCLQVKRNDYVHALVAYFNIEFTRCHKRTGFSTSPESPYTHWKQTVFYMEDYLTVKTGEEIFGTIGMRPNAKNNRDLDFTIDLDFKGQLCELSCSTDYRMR

[15] = biological target: Histone-lysine N-methyltransferase SETD2 (Homo sapiens, UniProt Q9BYW2); experiment: Inhibition of SETD2 (unknown origin)
[16] = biological target: T7, Histone-lysine N-methyltransferase EHMT1 (Homo sapiens, UniProt Q9H9B1); experiment: Inhibition of EHMT1 (unknown origin)
T7 sequence (Q9H9B1 whole entry): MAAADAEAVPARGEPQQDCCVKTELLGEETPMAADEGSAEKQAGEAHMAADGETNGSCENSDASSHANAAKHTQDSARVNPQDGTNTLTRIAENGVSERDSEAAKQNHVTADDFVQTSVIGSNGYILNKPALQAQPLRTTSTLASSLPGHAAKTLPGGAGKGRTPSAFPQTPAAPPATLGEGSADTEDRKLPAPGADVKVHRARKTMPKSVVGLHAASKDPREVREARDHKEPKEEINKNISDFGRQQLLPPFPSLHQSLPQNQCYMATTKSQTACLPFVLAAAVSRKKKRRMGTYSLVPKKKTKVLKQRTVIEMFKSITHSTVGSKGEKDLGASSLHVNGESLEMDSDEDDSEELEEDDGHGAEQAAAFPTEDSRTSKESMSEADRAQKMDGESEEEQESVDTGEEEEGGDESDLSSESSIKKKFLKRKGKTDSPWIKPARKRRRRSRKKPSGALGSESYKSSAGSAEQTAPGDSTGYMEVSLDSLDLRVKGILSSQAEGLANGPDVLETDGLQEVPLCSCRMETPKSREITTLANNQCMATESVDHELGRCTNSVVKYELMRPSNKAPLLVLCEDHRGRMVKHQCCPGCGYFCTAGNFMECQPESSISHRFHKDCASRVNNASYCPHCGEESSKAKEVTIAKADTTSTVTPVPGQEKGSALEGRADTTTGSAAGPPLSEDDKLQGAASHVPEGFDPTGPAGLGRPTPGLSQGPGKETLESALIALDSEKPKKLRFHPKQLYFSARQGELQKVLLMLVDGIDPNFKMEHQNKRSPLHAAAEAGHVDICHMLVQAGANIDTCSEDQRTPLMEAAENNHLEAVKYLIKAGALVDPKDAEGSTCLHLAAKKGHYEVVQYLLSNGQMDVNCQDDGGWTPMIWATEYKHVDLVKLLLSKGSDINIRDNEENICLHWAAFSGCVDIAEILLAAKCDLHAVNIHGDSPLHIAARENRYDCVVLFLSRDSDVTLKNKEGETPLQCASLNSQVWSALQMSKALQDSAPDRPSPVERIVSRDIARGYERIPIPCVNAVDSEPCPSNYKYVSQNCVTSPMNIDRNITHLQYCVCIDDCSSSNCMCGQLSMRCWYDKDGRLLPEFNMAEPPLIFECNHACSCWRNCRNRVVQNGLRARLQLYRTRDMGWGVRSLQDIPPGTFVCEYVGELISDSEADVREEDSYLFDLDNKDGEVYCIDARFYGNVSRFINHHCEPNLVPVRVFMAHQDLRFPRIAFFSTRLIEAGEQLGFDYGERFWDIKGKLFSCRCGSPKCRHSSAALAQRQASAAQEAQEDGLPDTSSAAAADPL

Sequence of Protein arginine N-methyltransferase 5 (O14744 whole entry): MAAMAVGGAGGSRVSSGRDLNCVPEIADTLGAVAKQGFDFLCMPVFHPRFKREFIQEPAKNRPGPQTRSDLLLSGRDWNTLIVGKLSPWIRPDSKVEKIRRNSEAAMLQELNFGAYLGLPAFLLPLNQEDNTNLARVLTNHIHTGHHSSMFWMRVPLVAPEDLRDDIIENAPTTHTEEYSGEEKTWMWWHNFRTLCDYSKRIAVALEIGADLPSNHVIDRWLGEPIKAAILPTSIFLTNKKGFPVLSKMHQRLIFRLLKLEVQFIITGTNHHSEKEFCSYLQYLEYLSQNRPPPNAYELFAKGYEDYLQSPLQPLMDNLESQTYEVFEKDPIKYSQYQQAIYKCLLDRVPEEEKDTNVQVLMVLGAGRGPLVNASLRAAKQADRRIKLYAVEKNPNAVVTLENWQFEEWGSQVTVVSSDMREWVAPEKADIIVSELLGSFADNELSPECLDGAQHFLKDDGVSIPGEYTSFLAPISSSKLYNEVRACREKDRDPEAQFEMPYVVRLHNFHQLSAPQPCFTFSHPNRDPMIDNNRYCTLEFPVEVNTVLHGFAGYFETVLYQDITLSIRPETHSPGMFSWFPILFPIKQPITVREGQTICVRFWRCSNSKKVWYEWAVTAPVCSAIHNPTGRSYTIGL

## Nc1ncnc2c1ccn2[C@H]1O[C@@H]([C@H](O)c2ccccc2)[C@H](O)[C@@H]1O
[1]
  IC50: 9.5 nM

## CCCCCCNCCN(CC[C@H](N)C(=O)O)C[C@@H]1O[C@H](n2cnc3c(N)ncnc32)[C@@H](O)[C@H]1O
[2]
  IC50: > 10000 nM

## Cc1coc2c1C(=O)C(=O)c1c-2ccc2c1CC[C@@H](O)[C@]2(C)O
[3]
  IC50: 550 nM
[4]
  Ki: 194 nM

## COc1cccc(C(=O)NCc2c(C)cc(C)[nH]c2=O)c1Cl
[3]
  IC50: 7.2 nM

## Cc1cc(Nc2ccc3nc(C)cc(N)c3c2)nc(Nc2ccc3nc(C)cc(N)c3c2)n1
MV4-11
  IC50: 37100 nM

## CSc1cc(C)[nH]c(=O)c1CNC(=O)c1c(C)n([C@@H](C)[C@H]2CC[C@H](N3CC(OC4CC4)C3)CC2)c2ccccc12
[3]
  IC50: 0.057 nM
[5]
  TIME: 57 h

## Cc1cc(C)c(CN2CCc3c(Cl)cc(-c4c(C)noc4C)c(Cl)c3C2=O)c(=O)[nH]1
[3]
  IC50: < 5 nM
[6]
  solubility: 0.002 mg/mL (≈ 4.48 µM)

## CC(C)N(CCCNC(=O)Nc1ccc(C(C)(C)C)cc1)C[C@@H]1O[C@H](n2cc(Br)c3c(N)ncnc32)[C@@H](O)[C@H]1O
cells
  IC50: 8.8 nM

## CNc1ccnc(Nc2ccc3sc(Cl)c(-c4cc(-c5c(C)ncn(C)c5=O)cnc4Cl)c3c2)n1
[7]
  IC50: 1400 nM
cells
  IC50: 23 nM

## CO[C@@H](c1cc(Cl)c2c(c1Cl)C(=O)N(Cc1c(C)cc(C)[nH]c1=O)CC2)C1COC1
[8]
  Ki: < 0.1 nM
[6]
  solubility: 0.315 mg/mL (≈ 698 µM)

## Nc1ncnc2c1ncn2[C@H]1O[C@@H](CN(CCI)CCC[C@H](N)C(=O)O)[C@H](O)[C@@H]1O
[9]
  IC50: 1800 nM
[10]
  IC50: 1100 nM

## COc1cc([C@H]2Oc3c(O)cc(CCCO)cc3[C@@H]2CO)ccc1O[C@@H]1O[C@@H](C)[C@@H](O)[C@@H](O)[C@H]1O
[11]
  IC50: 399 nM

## Cc1cc(C)c(CNC(=O)c2c(C)n([C@H](C)C3CCN(CC(F)(F)F)CC3)c3ccccc23)c(=O)[nH]1
[3]
  IC50: 22 nM

## CCCc1cc(C)[nH]c(=O)c1CNC(=O)c1cc(-c2ccc(N3CCN(C(C)C)CC3)nc2)cc2c1cnn2C(C)C
[3]
  IC50: < 10 nM

## NC(=O)CNC(=O)Nc1ccc2ccn(-c3ccccc3Cl)c2c1
[7]
  IC50: 9000 nM

## CCC(CC)n1ncc2c(C(=O)NCc3c(C)cc(C)[nH]c3=O)cc(C#N)cc21
[12]
  IC50: 15 nM
[13]
  IC50: 13 nM

## Nc1ncnc2ccc(N(CC#CC(O)c3nccn3CCO)c3c(Cl)cccc3Cl)cc12 (stereo not drawn)
[7]
  IC50: 14000 nM

## Nc1ncnc2c1ncn2[C@H]1O[C@@H](CSCC[C@H](N)C(=O)NCc2cc(-c3ccccc3)[nH]n2)[C@H](O)[C@@H]1O
[3]
  IC50: 270 nM

## CC(C)(C)c1ccc(CC(=O)c2ncn(CC(=O)NCCn3ccc4c(N)ncnc43)n2)cc1
[7]
  IC50: 1000 nM

## CCNC(=O)NCCCSC[C@@H]1O[C@H](n2cnc3c(N)ncnc32)[C@@H](O)[C@H]1O
[1]
  IC50: 6000 nM

## CCC(CC)n1ncc2c(C(=O)NCc3c(C)cc(C)[nH]c3=O)cc(C3CC3)nc21
[3]
  IC50: 149 nM

## CNc1ccnc(Nc2ccc3cc(C)n(-c4ccccc4Oc4cnc5c(c4)ncn5C)c3c2)n1
cells
  IC50: 16 nM

## N=C(N)NCCCN(CCCN)C[C@@H]1O[C@H](n2cnc3c(N)ncnc32)[C@@H](O)[C@H]1O
[14]
  IC50: 7200 nM
[10]
  IC50: 2300 nM

## NCCCN(CCCNc1ccccn1)C[C@@H]1O[C@H](n2cnc3c(N)ncnc32)[C@@H](O)[C@H]1O
[10]
  IC50: 90 nM

## CCCN(CC[C@H](N)C(=O)O)C[C@@H]1O[C@H](n2cnc3c(N)ncnc32)[C@@H](O)[C@H]1O
[15]
  IC50: 800 nM

## CN(CCCNC(=O)CNC(=O)Nc1ccc2sc(Cl)c(-c3cccnc3)c2c1)[C@@H]1CCCC(c2ncnc3[nH]ccc23)C1 (stereo partly drawn)
[7]
  IC50: < 100 nM

## Nc1ncnc2c1ncn2[C@H]1O[C@@H](C[C@H](N)CC[C@H](N)C(=O)O)[C@H](O)[C@@H]1O
[2]
  IC50: 2500 nM
[16]
  IC50: 513000 nM
[7]
  IC50: 26000 nM

## Nc1cccc(CCC[C@@H]2C[C@H](n3ccc4c(N)ncnc43)[C@@H](O)[C@H]2O)n1
[1]
  IC50: 0.4 nM
